Reference: patent US7622269B2, “Methods of screening tyramine- and octopamine-expressing cells for compounds and compositions having potential insect control activity” (Tyratech, Inc., priority 2004, dated 2009)
Values joined by “and” are separate entries in the source; they are usually repeats but may differ in a detail not shown here. Equal entries are not always repeated.

Tests used:
Pa oa1 [1] = molecular target: T1, Pa oa1 (Periplaneta americana, UniProt Q7YWB7); test: Competitive binding against 3H-yohimbine, Pa oa1 membranes
Pa oa1 [2] = molecular target: T1, Pa oa1; test: cAMP levels in HEK-293 cells expressing Pa oa1; format: cell-based
Method: (§1) Twenty-four hours before cell treatment, about 300,000 HEK-293 cells are plated in about 1 ml media with about 0.8 mg G418/ml into multi-well dishes (e.g., 12-well, 4.5 cm^2). For cell treatment, the media is aspirated and about 1 ml PBS with about 300 μM IBMX and the test reagent is added. […] Cells are incubated with about 70% ethanol for about 1 h at about −20° C. The cellular debris is centrifuged and then the supernatant is removed and lyophilized to dryness. The amount of cAMP in the extract is determined by using a cAMP binding protein from the ^3H-cAMP Biotrak assay system (Amersham Biosciences) as per the manufacturer's instructions. To test the effects of calcium chelation on cAMP levels, the cells are incubated with about […] BAPTA/AM (Calbiochem Biochemicals, La Jolla, Calif.) for about 10 min before the addition of the test reagents.
(§2) To determine cAMP levels in cells, about 24-hours before cell treatment, 300,000 HEK-293 cells are plated in 1 mL media with 0.8 mg G418/mL into multi-dishes (4.5 cm2). For cell treatment, the media is aspirated and 1 mL PBS with 300 μM IBMX and the test reagent is added. Cells are incubated at 37° C. for 20 min, and the PBS is then aspirated. Cells are incubated with 70% ethanol for 1 hour at −20° C. The cellular debris is centrifuged and then the supernatant is removed and lyophilized to dryness. The amount of cAMP in the extract is determined by using a cAMP binding protein from the ^3H-cAMP Biotrak assay system (Amersham Biosciences, Piscataway, N.J.) as per the manufacturer's instructions.

Pa oa1 [3] = molecular target: T1, Pa oa1; test: Intracellular calcium (Fura-2) in HEK-293 cells expressing Pa oa1; format: cell-based
control HEK-293 cells [4] = test: cAMP levels in control HEK-293 cells transfected with pCDNA3 without insert; format: cell-based, human
Method: as §1
To determine which second messenger signaling pathways octopamine could affect through the Pa oa1 receptor, HEK-293 cells are stably transfected with pCDNA3-Pa oa1 or pCDNA3 without an insert as a control.

control HEK-293 cells [5] = test: Intracellular calcium in control HEK-293 cells transfected with empty pCDNA3; format: cell-based, human
OAMB [6] = molecular target: T2, OAMB (Drosophila melanogaster, UniProt Q7JQF1, L268I/L487I/L521I/T180I); test: Intracellular calcium (Fura-2) in HEK-293 cells expressing OAMB; details: 10 μM
Method: Cells are collected by scraping and are suspended at about 750,000 cells/ml in HBSS with about 5 μM Fura-2 AM (Sigma-Aldrich).

OAMB [7] = molecular target: T2, OAMB; test: biochemical; format: binding; design: Oligonucleotides designed to amplify the open reading frame of Drosophila melanogaster OAMB; expressed in transfected cells
OAMB [8] = molecular target: T2, OAMB; test: cAMP levels in HEK-293 cells expressing OAMB; format: cell-based; design: Oligonucleotides designed to amplify the open reading frame of Drosophila melanogaster OAMB; expressed in transfected cells; details: 10 μM
Method: as §2

T1 sequence (Q7YWB7 entry or part of it): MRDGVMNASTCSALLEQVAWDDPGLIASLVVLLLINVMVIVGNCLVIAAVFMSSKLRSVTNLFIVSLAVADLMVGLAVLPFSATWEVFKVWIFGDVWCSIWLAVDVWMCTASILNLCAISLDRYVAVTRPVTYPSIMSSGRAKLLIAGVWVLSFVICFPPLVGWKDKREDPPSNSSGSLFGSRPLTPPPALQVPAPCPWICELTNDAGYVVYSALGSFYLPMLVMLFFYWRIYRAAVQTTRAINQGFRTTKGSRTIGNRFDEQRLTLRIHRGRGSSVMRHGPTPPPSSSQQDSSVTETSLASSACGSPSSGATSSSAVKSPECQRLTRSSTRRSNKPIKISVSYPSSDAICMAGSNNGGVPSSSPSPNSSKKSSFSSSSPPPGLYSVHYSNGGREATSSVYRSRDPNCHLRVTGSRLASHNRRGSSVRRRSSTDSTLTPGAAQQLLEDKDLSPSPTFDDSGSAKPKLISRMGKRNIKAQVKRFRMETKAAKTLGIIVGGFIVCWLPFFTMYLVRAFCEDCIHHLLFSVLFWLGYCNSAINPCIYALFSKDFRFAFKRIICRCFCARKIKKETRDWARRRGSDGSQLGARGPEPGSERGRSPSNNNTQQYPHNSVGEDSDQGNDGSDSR
T2 sequence (Q7JQF1 other isoform, or with tags, fused parts or gaps T180I/L268I/L487I/L524I): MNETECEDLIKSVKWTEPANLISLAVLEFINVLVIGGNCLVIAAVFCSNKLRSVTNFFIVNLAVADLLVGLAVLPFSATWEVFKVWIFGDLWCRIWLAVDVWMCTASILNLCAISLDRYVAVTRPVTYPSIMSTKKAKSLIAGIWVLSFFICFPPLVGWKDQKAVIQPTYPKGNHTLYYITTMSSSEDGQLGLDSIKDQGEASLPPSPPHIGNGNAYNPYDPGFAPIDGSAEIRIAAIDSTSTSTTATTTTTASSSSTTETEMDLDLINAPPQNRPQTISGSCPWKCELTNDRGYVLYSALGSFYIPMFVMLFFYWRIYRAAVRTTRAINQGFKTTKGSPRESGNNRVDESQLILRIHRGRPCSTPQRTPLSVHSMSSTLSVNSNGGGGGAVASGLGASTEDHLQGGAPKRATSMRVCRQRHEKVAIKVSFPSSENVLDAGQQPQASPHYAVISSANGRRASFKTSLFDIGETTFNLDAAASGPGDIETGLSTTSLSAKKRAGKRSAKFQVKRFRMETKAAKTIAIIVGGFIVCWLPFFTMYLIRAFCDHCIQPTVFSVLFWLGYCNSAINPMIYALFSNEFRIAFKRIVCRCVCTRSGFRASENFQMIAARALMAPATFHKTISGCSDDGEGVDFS

In the case of `NCC(O)c1ccc(O)cc1` (racemic) [Octopamine, DL-octopamine], the Ki (Pa oa1 [1]; Table B, 4 nM 3H-yohimbine) is reported as 13.3 µM, the Ki (Pa oa1 [1]; about 2 nM 3H-yohimbine) is reported as ~13.3 µM and 13.3 µM and the “affinity of octopamine higher than tyramine” value (Pa oa1 [1]; Pa oa1) is reported as “about 2.3 fold”. For the same molecule, the “effect on level of cAMP” value (Pa oa1 [2]; 10 μM) was “increases the level of cAMP”, the EC50 (Pa oa1 [2]; 300 μM IBMX, read-out: EC50 for increase in cAMP) was about 1.62 µM and the fold induction at 100 µM (Pa oa1 [2]; HEK293, 20 min, about 100 μM amine, read-out: increase in cAMP) was about 911. The cAMP concentration (Pa oa1 [2]; about 10 nM amine, basal about 0.48 pmol cAMP) was “about 1.2 pmol cAMP”, the “lowest concentration that increases intracellular calcium levels” value (Pa oa1 [3]) was “about 10 nM” and the “effect on level of [Ca2+]i” value (Pa oa1 [3]; 10 μM) was “increases the level [Ca^2+]i”. The “effect on intracellular calcium” value (Pa oa1 [3]; about 100 nM) was “a rapid increase in intracellular calcium is detected”, the “changes in cAMP level” value (control HEK-293 cells [4]; 10 μM, empty vector) was “insignificant changes” and the “effect on cAMP levels” value (control HEK-293 cells [4]; up to about 100 μM) was “neither DL-octopamine nor tyramine at concentrations up to about 100 μM has significant effects on cAMP levels”. For the same molecule, the “changes in [Ca2+]” value (control HEK-293 cells [5]; 10 μM, empty vector) was “insignificant changes”, the “effect on intracellular calcium levels” value (control HEK-293 cells [5]; about 10 μM) was “Neither about 10 μM octopamine nor about 10 μM tyramine modulates intracellular calcium levels” and the “effect on level of [Ca2+]i” value (OAMB [6]) was “increases the level [Ca^2+]i”. For the same molecule, the Ki (OAMB [7]) was 8.2 µM, the “affinity of octopamine higher than tyramine” value (OAMB [7]; OAMB) was “about 4.1 fold” and the “effect on level of cAMP” value (OAMB [8]) was “increases the level of cAMP”.
